Results as given in patent US12599672B2, “KRAS proteolysis targeting chimeras” (PAQ Therapeutics Inc., priority 2023, dated 2026).

Experiments:
Type in all cases: cell-based
KRAS = target: T1, KRAS (Homo sapiens, UniProt P01116); assay: KRASamp MSD assay; settings: KE39 (KRAS amplified) cells, treated with test compounds for 24 hr, MSD readout of KRAS degradation
T1 construct: endogenous in cells; host or cells: KE39 (KRAS amplified) cells
Summary of the method: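 KRAS-amplified KE39 cells treated with compound for 24 hr, then lysed in RIPA buffer with protease/phosphatase inhibitors. KRAS protein measured by MSD sandwich immunoassay against a recombinant WT KRAS standard curve; DC50 derived from curve fitting of degradation.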

KRAS G12V = target: T2, KRAS G12V (Homo sapiens, UniProt P01116, G12V); assay: KRAS G12V HiBit assay; settings: SW620-KRAS (G12V)-HiBit-KI cells, compound treatment for 24 hours, class symbols
T2 construct: SW620-KRAS (G12V)-HiBit-KI cell (Pharmaron); host or cells: SW620-KRAS (G12V)-HiBit-KI cells (HiBiT knock-in at the endogenous KRAS locus)
T2 sequence (P01116 1-188 isoform P01116-2 G12V): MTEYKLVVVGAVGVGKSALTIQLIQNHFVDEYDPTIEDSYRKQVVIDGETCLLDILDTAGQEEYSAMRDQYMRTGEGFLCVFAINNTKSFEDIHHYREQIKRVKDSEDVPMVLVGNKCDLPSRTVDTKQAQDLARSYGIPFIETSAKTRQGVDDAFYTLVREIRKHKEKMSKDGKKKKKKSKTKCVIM
Summary of the method: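 HiBiT-tagged KRAS G12V cells treated 24 h with compound in a 3-fold, 10-point series (0.3 mM DMSO stock); lytic HiBiT reagent with LgBiT added after 15 min room-temperature equilibration. Degradation calculated against 0.1% DMSO high control.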

KRAS G12D = target: T3, KRAS G12D (Homo sapiens, UniProt P01116, G12D); assay: KRAS G12D HiBit assay; settings: AsPc-1-KRAS (G12D)-HiBit-KI cell, compound treatment for 24 hours, absolute DC50
T3 construct: AsPc-1-KRAS (G12D)-HiBit-KI cell (Pharmaron); host or cells: AsPc-1-KRAS (G12D)-HiBit-KI cells (HiBiT knock-in at the endogenous KRAS locus)
T3 sequence (P01116 1-188 isoform P01116-2 G12D): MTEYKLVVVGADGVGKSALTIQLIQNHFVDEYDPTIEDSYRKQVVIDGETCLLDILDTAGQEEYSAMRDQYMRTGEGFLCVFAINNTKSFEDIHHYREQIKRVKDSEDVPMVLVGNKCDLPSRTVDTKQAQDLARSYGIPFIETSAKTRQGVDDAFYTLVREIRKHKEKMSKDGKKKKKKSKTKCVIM
Summary of the method: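 Cells were treated for 24 h with compounds in a 3-fold, 10-point dilution series from a 0.3 mM DMSO stock, then equilibrated 15 min at room temperature. KRAS G12D HiBiT levels were read by luminescence after lytic Nano-Glo HiBiT reagent with LgBiT; inhibition calculated relative to 0.1% DMSO high control.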

[1] = numeric bounds given in place of class symbols

T1 sequence (P01116 1-188 isoform P01116-2): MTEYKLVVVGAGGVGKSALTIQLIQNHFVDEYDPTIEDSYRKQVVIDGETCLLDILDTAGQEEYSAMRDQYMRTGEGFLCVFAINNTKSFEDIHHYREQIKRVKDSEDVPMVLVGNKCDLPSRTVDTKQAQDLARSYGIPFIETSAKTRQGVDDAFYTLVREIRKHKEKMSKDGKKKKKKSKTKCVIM

Compound | DC50 (KRAS) [nM] | DC50 (KRAS G12V) [nM] | DC50 (KRAS G12D; class symbols) [nM] | DC50 (KRAS G12D; [1]) [nM]
C#Cc1c(F)ccc2cc(O)cc(-c3ncc4c(N5CCC[C@@](C)(O)C5)nc(OC[C@@]56CCCN5[C@H](COC(=O)N5CCC7(CCC7CN7CCC(c8ccc9c(c8)n(C)c(=O)n9C8CCC(=O)NC8=O)CC7)CC5)CC6)nc4c3F)c12 (stereo partly drawn) [Compound 327, ((3S,7aS)-7a-(((7-(8-ethynyl-7-fluoro-3-hydroxynaphthalen-1-yl)-8-fluoro-4-((R)-3-hydroxy-3-methylpiperidin-1-yl)pyrido[4,3-d]pyrimidin-2-yl)oxy)methyl)hexahydro-1H-pyrrolizin-3-yl)methyl 1-((4-(1-(2,6-dioxopiperidin-3-yl)-3-methyl-2-oxo-2,3-dihydro-1H-benzo[d]imidazol-5-yl)piperidin-1-yl)methyl)-7-azaspiro[3.5]nonane-7-carboxylate] | ≥ 10 | > 100 | < 100 | –
C#Cc1c(F)ccc2cc(O)cc(-c3ncc4c(N5CCC[C@@](C)(O)C5)nc(OC[C@@]56CCCN5[C@H](COC(=O)N5CCCC7(C5)CN(C5CCN(c8ccc9c(c8)n(C)c(=O)n9C8CCC(=O)NC8=O)CC5)C7)CC6)nc4c3F)c12 (stereo partly drawn) [Compound 328, ((3S,7aS)-7a-(((7-(8-ethynyl-7-fluoro-3-hydroxynaphthalen-1-yl)-8-fluoro-4-((R)-3-hydroxy-3-methylpiperidin-1-yl)pyrido[4,3-d]pyrimidin-2-yl)oxy)methyl)hexahydro-1H-pyrrolizin-3-yl)methyl 2-(1-(1-(2,6-dioxopiperidin-3-yl)-3-methyl-2-oxo-2,3-dihydro-1H-benzo[d]imidazol-5-yl)piperidin-4-yl)-2,6-diazaspiro[3.5]nonane-6-carboxylate] | ≥ 10 | > 100 | – | > 100
C#Cc1c(F)ccc2cc(O)cc(-c3ncc4c(N5CCC[C@@](C)(O)C5)nc(OC[C@@]56CCCN5[C@H](COC(=O)N5CCCC7(CN(CC8CCN(c9ccc%10c(c9)n(C)c(=O)n%10C9CCC(=O)NC9=O)CC8)C7)C5)CC6)nc4c3F)c12 (stereo partly drawn) [Compound 329, ((3S,7aS)-7a-(((7-(8-ethynyl-7-fluoro-3-hydroxynaphthalen-1-yl)-8-fluoro-4-((R)-3-hydroxy-3-methylpiperidin-1-yl)pyrido[4,3-d]pyrimidin-2-yl)oxy)methyl)hexahydro-1H-pyrrolizin-3-yl)methyl 2-((1-(1-(2,6-dioxopiperidin-3-yl)-3-methyl-2-oxo-2,3-dihydro-1H-benzo[d]imidazol-5-yl)piperidin-4-yl)methyl)-2,6-diazaspiro[3.5]nonane-6-carboxylate] | ≥ 10 | > 100 | – | > 100
CCc1c(F)ccc2cc(O)cc(-c3ncc4c(N5CCC[C@@](C)(O)C5)nc(OC[C@]56CCCN5[C@H](COC(=O)N5CCC(Oc7ccc8c(c7)n(C)c(=O)n8C7CCC(=O)NC7=O)CC5)CC6)nc4c3F)c12 (stereo partly drawn) [Compound 330, ((3S,7aR)-7a-(((7-(8-ethyl-7-fluoro-3-hydroxynaphthalen-1-yl)-8-fluoro-4-((R)-3-hydroxy-3-methylpiperidin-1-yl)pyrido[4,3-d]pyrimidin-2-yl)oxy)methyl)hexahydro-1H-pyrrolizin-3-yl)methyl 4-((1-(2,6-dioxopiperidin-3-yl)-3-methyl-2-oxo-2,3-dihydro-1H-benzo[d]imidazol-5-yl)oxy)piperidine-1-carboxylate] | 1 to 10 | > 100 | – | > 100
CCc1c(F)ccc2cc(O)cc(-c3ncc4c(N5CCC[C@H](CO)C5)nc(OC[C@@]56CCCN5[C@H](COC(=O)N5CCC(CN7CCC(c8ccc9c(c8)n(C)c(=O)n9C8CCC(=O)NC8=O)CC7)CC5)CC6)nc4c3F)c12 (stereo partly drawn) [Compound 339, ((3S,7aS)-7a-(((7-(8-ethyl-7-fluoro-3-hydroxynaphthalen-1-yl)-8-fluoro-4-((S)-3-(hydroxymethyl)piperidin-1-yl)pyrido[4,3-d]pyrimidin-2-yl)oxy)methyl)hexahydro-1H-pyrrolizin-3-yl)methyl 4-((4-(1-(2,6-dioxopiperidin-3-yl)-3-methyl-2-oxo-2,3-dihydro-1H-benzo[d]imidazol-5-yl)piperidin-1-yl)methyl)piperidine-1-carboxylate] | 1 to 10 | > 100 | – | > 100
CCc1c(F)ccc2cc(O)cc(-c3ncc4c(N5CCC[C@@H](CO)C5)nc(OC[C@@]56CCCN5[C@H](COC(=O)N5CCC(CN7CCC(c8ccc9c(c8)n(C)c(=O)n9C8CCC(=O)NC8=O)CC7)CC5)CC6)nc4c3F)c12 (stereo partly drawn) [Compound 340, ((3S,7aS)-7a-(((7-(8-ethyl-7-fluoro-3-hydroxynaphthalen-1-yl)-8-fluoro-4-((R)-3-(hydroxymethyl)piperidin-1-yl)pyrido[4,3-d]pyrimidin-2-yl)oxy)methyl)hexahydro-1H-pyrrolizin-3-yl)methyl 4-((4-(1-(2,6-dioxopiperidin-3-yl)-3-methyl-2-oxo-2,3-dihydro-1H-benzo[d]imidazol-5-yl)piperidin-1-yl)methyl)piperidine-1-carboxylate] | < 1 | < 10 | < 100 | –
CCc1c(F)ccc2cc(O)cc(-c3ncc4c(N5CCCC(C)(CO)C5)nc(OC[C@@]56CCCN5[C@H](COC(=O)N5CCC(CN7CCC(c8ccc9c(c8)n(C)c(=O)n9C8CCC(=O)NC8=O)CC7)CC5)CC6)nc4c3F)c12 (stereo partly drawn) [Compound 341, ((3S,7aS)-7a-(((7-(8-ethyl-7-fluoro-3-hydroxynaphthalen-1-yl)-8-fluoro-4-(3-(hydroxymethyl)-3-methylpiperidin-1-yl)pyrido[4,3-d]pyrimidin-2-yl)oxy)methyl)hexahydro-1H-pyrrolizin-3-yl)methyl 4-((4-(1-(2,6-dioxopiperidin-3-yl)-3-methyl-2-oxo-2,3-dihydro-1H-benzo[d]imidazol-5-yl)piperidin-1-yl)methyl)piperidine-1-carboxylate] | ≥ 10 | > 100 | – | > 100

Results, then the molecule that gave them:

DC50 (KRAS) [nM] | DC50 (KRAS G12V) [nM] | DC50 (KRAS G12D; class symbols) [nM] | DC50 (KRAS G12D; [1]) [nM] | Compound
1 to 10 | 10 to 100 | < 100 | – | CCc1c(F)ccc2cc(O)cc(-c3ncc4c(N5CCC[C@@](C)(O)C5)nc(OC[C@]56CCCN5[C@H](COC(=O)N5CCC(N7CCC(c8ccc9c(c8)n(C)c(=O)n9C8CCC(=O)NC8=O)C7)CC5)CC6)nc4c3F)c12 (stereo partly drawn) [Compound 337, ((3S,7aR)-7a-(((7-(8-ethyl-7-fluoro-3-hydroxynaphthalen-1-yl)-8-fluoro-4-((R)-3-hydroxy-3-methylpiperidin-1-yl)pyrido[4,3-d]pyrimidin-2-yl)oxy)methyl)hexahydro-1H-pyrrolizin-3-yl)methyl 4-(3-(1-(2,6-dioxopiperidin-3-yl)-3-methyl-2-oxo-2,3-dihydro-1H-benzo[d]imidazol-5-yl)pyrrolidin-1-yl)piperidine-1-carboxylate]
1 to 10 | > 100 | – | > 100 | CCc1c(F)ccc2cc(O)cc(-c3ncc4c(N5CCCCCC5)nc(OC[C@@]56CCCN5[C@H](COC(=O)N5CCC7(CC5)CC(N5CCC(c8ccc9c(c8)n(C)c(=O)n9C8CCC(=O)NC8=O)CC5)C7)CC6)nc4c3F)c12 (stereo partly drawn) [Compound 344, ((3S,7aS)-7a-(((4-(azepan-1-yl)-7-(8-ethyl-7-fluoro-3-hydroxynaphthalen-1-yl)-8-fluoropyrido[4,3-d]pyrimidin-2-yl)oxy)methyl)hexahydro-1H-pyrrolizin-3-yl)methyl 2-(4-(1-(2,6-dioxopiperidin-3-yl)-3-methyl-2-oxo-2,3-dihydro-1H-benzo[d]imidazol-5-yl)piperidin-1-yl)-7-azaspiro[3.5]nonane-7-carboxylate]
1 to 10 | > 100 | – | > 100 | CCc1c(F)ccc2cc(O)cc(-c3ncc4c(N5CCN6CCCC6C5)nc(OC[C@@]56CCCN5[C@H](COC(=O)N5CCC7(CC5)CC(N5CCC(c8ccc9c(c8)n(C)c(=O)n9C8CCC(=O)NC8=O)CC5)C7)CC6)nc4c3F)c12 (stereo partly drawn) [Compound 345, ((3S,7aS)-7a-(((7-(8-ethyl-7-fluoro-3-hydroxynaphthalen-1-yl)-8-fluoro-4-(hexahydropyrrolo[1,2-a]pyrazin-2(1H)-yl)pyrido[4,3-d]pyrimidin-2-yl)oxy)methyl)hexahydro-1H-pyrrolizin-3-yl)methyl 2-(4-(1-(2,6-dioxopiperidin-3-yl)-3-methyl-2-oxo-2,3-dihydro-1H-benzo[d]imidazol-5-yl)piperidin-1-yl)-7-azaspiro[3.5]nonane-7-carboxylate]
1 to 10 | 10 to 100 | < 100 | – | CCc1c(F)ccc2cc(O)cc(-c3ncc4c(N5CC6CC6C5)nc(OC[C@@]56CCCN5[C@H](COC(=O)N5CCC7(CC5)CC(N5CCC(c8ccc9c(c8)n(C)c(=O)n9C8CCC(=O)NC8=O)CC5)C7)CC6)nc4c3F)c12 (stereo partly drawn) [Compound 346, ((3S,7aS)-7a-(((4-(3-azabicyclo[3.1.0]hexan-3-yl)-7-(8-ethyl-7-fluoro-3-hydroxynaphthalen-1-yl)-8-fluoropyrido[4,3-d]pyrimidin-2-yl)oxy)methyl)hexahydro-1H-pyrrolizin-3-yl)methyl 2-(4-(1-(2,6-dioxopiperidin-3-yl)-3-methyl-2-oxo-2,3-dihydro-1H-benzo[d]imidazol-5-yl)piperidin-1-yl)-7-azaspiro[3.5]nonane-7-carboxylate]
